Reference: patent US5688913A, “CS-1 peptidomimetics, compositions and methods of using the same” (Cytel Corporation, priority 1995, dated 1997)
Numbered stars: 1 amine (or outer) side, 2 acyl side, 3 side chain; on linkers, the order of the positions; unused ones are H or OH. Square brackets hold non-standard residues; d marks the D form. Peptide text beside a SMILES is read from it. * marks the point of attachment. X20 = O=C(CCCCCO[C@@H]1O[C@H](CO)[C@@H](O)[C@H](O)[C@H]1N[*:1])[*:2]; Phe(4-NO2) = N[C@@H](Cc1ccc([N+](=O)[O-])cc1)C(=O)O; Biotin = O=C1N[C@H]2[C@H](CS[C@H]2CCCCC(=O)*)N1; hPhe = N[C@@H](CCc1ccccc1)C(=O)O; Cha = N[C@@H](CC1CCCCC1)C(=O)O; Phg = N[C@H](C(=O)O)c1ccccc1; Piperidide = C1CCN(*)CC1; PhAc = O=C(Cc1ccccc1)*; Bz = O=C(c1ccccc1)*; Ahx = NCCCCCC(=O)O

What follows are molecules tested against VLA-4 (Homo sapiens, UniProt P05556+P13612) (assay: cell-based). Conditions: not given.
Type: cell-based
Parameters: host or cells: Jurkat (human T lymphoblastic line)
Experimental: Binding inhibition is measured here as a concentration of peptide that inhibits one-half the binding between a standard number of Jurkat cells and a standard amount of CS-1 peptide bound to the surface of a microtiter plate well. Those concentrations are conveniently expressed as IC50 values, smaller numbers indicating a lower concentration required to inhibit 50 percent binding and therefore greater potency. Further specifics of this assay are provided hereinafter.
Jurkat cells (ATCC TIB 152), a human T lymphoblastic line, labeled with ^51 chromium were used to assay in vitro binding inhibition provided by various peptides discussed herein.
The plates were prepared as follows: The 25-mer CS-1 peptide (SEQ ID NO:1) dissolved at 0.5-1 μg/ml in a buffer of 0.1M NaHCO3 at pH 9.5 that also contained 10 μg/ml of bovine serum albumin (BSA) or a conjugate of the CS-1 peptide linked to ovalbumin (CS-1-OVA) dissolved at 1-2.5 μg/ml in the same buffer was used as the substrate. Each well of the microtiter plates was coated with 50 μl of substrate or buffer alone for controls. The wells were permitted to dry out completely and were then rinsed twice with PBS at pH 7.4. Non-specific binding sites of each well were then blocked using 200 μl per well of RPMI/1 percent BSA for two hours at room temperature. Both solid phase-affixed substrates provided similar results.
Jurkat cells (3-5×10^6 cells) were placed into a 15 ml Falcon™ round-bottom tube with a cap. The tube was centrifuged, and the extra medium was then removed.
Two hundred microliters of a ^51 Cr labeling solution were added to the centrifuged cells and maintained in contact with the cells for 90-120 minutes in a warm room. This procedure typically provides about 50,000-100,000 cpm/well with about 80-100 percent cell viability. Longer contact times provide a greater amount of labeling but lower cell viability.
The labeled cells are washed with (i) complete medium, (ii) 1 mM EDTA/PBS and then (iii) RPM1/1 percent BSA free of serum components. The cells are centrifuged after each washing. The cells are finally resuspended in serum-free RPMI/1 percent BSA at a concentration of 1×10^6 viable cells/ml, which provides a concentration that is diluted by one-half in the assay.
Inhibitor peptides are prepared as stock solutions at 20 mg/ml in DMSO in 1.5 ml cryogenic screwcap vials, and were stored at -70° C. Using Flow™ round-bottom or V-bottom microtiter plates, the inhibitor peptides were prepared at twice the assay concentration in RPMI/1 percent BSA at 60 μl well.
Four initial dilutions were typically used.
The ^51 Cr-labeled cells (1×10^6 cells at 60 μl/well) were then admixed with the diluted peptide solutions. The admixtures were maintained at room temperature (about 22° C.) for 30 minutes.
One hundred microliters of each inhibitor peptide/cell admixture were transferred to the substrate-coated wells. This was done in triplicate for each dilution. The resulting plates were incubated for 30 minutes at 37° C. and then washed gently three times with RPMI/1 percent BSA at 200 μl/well. Binding was observed microscopically, particularly after the second wash.
The bound cells were then lysed by the addition of a 0.5 percent solution of sodium dodecylsulfate in water at 100 μ/l well. The resulting solutions were then processed for counting and calculation of IC50 values following usual procedures. Appropriate positive and negative controls were used with each plate so that the results of separate assays could be normalized and compared.
The data of Table 1 are so normalized.

Chain of VLA-4 (P13612 34-1032): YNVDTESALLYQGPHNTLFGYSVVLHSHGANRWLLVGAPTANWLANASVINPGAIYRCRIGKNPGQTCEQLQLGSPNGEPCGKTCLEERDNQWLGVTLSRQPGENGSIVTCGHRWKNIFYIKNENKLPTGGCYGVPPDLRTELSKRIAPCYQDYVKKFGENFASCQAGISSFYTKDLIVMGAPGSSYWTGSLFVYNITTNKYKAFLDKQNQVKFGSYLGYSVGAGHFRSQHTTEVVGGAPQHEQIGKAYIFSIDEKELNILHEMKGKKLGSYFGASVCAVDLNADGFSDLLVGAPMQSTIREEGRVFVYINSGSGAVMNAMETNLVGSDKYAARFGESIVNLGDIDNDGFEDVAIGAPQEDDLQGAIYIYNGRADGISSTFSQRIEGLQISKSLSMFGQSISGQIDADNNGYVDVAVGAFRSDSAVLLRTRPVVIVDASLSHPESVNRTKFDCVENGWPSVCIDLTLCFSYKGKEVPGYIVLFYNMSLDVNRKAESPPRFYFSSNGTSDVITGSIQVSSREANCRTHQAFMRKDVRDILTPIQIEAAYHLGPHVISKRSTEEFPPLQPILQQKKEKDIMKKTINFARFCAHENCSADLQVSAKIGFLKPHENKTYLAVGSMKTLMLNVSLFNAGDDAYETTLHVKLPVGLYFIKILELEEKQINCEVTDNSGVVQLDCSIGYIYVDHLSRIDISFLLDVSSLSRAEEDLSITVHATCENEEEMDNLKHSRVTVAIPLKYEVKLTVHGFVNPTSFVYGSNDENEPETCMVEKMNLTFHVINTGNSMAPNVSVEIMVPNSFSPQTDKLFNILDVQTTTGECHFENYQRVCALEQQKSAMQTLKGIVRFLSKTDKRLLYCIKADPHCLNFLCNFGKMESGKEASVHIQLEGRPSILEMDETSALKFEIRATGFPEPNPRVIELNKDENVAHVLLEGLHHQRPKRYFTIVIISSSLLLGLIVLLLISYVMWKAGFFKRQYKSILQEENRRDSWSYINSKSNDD
Chain of VLA-4 (P05556 21-798): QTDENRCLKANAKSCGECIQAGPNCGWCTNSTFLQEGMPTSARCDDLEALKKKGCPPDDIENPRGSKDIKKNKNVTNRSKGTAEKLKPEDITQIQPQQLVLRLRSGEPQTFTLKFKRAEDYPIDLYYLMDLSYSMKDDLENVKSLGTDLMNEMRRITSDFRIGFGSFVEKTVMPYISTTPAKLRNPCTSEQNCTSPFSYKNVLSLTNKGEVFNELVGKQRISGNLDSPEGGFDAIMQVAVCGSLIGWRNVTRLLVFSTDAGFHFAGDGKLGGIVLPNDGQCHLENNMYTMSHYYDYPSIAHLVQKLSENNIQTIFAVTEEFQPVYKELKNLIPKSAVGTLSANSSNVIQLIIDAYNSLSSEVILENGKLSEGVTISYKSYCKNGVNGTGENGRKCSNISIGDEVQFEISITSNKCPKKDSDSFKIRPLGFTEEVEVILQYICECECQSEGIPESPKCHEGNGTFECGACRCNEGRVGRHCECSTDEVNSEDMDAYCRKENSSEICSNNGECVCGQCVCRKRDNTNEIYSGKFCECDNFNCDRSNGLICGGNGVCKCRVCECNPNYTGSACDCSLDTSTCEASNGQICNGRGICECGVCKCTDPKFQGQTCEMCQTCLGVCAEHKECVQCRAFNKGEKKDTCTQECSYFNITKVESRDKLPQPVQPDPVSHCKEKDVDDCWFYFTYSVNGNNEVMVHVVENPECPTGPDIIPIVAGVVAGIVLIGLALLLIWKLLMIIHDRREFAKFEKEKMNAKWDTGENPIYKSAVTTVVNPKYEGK

RELATIVE POTENCY (relative peptide inhibition of VLA-4 binding CS-1)	Structure (SMILES)
2	CC(C)CC(C(=O)NCc1ccccc1)C(=O)N[C@@H](CC(=O)O)C(=O)N[C@@H](Cc1ccccc1)C(=O)N1CCC[C@@H]1C(N)=O (some centres unmarked)
56	CC(C)C[C@@H](C(=O)N[C@@H](CC(=O)O)C(=O)N[C@@H](Cc1ccccc1)C(=O)N1CCC[C@@H]1C(N)=O)n1c(=O)[nH]c2ccccc2c1=O
1	NC(=O)[C@H]1CCCN1C(=O)[C@H](Cc1ccccc1)NC(=O)[C@H](CC(=O)O)NC(=O)[C@H](CC1CCCCC1)NC(=O)[C@@H](N)Cc1ccccc1 (H-F[Cha]DF[dP]-NH2)
1	CC[C@H](C)[C@H](N)C(=O)N[C@@H](CC1CCCCC1)C(=O)N[C@@H](CC(=O)O)C(=O)N[C@@H](Cc1ccccc1)C(=O)N1CCC[C@@H]1C(N)=O (H-I[Cha]DF[dP]-NH2)
< 1	CC[C@H](C)[C@H](N)C(=O)N[C@@H](CC1CCCCC1)C(=O)N[C@@H](CC(=O)O)C(=O)N[C@H](C(=O)N1CCC[C@@H]1C(N)=O)C(C)C (H-I[Cha]DV[dP]-NH2)
1	CCC(C)C(N)C(=O)N[C@@H](CC(C)C)C(=O)N[C@@H](CC(=O)O)C(=O)N[C@H](C(=O)N1CCC[C@@H]1C(N)=O)C(C)C (single isomer, unassigned) [I L D V p free amine amide]
20	CC(C)C[C@H](NC(=O)C(C)(C)C)C(=O)N[C@@H](CC(=O)O)C(=O)N[C@H](C(=O)N1CCCC1C(N)=O)C(C)C (single isomer, unassigned) [X L D V P pivaloyl amide]
150	CC(C)C[C@H](NC(=O)[C@H](Cc1ccccc1)NC(=O)CCCCCNC(=O)CCCC[C@@H]1SC[C@@H]2NC(=O)N[C@@H]21)C(=O)N[C@@H](CC(=O)O)C(=O)N[C@@H](Cc1ccccc1)C(=O)N1CCC[C@@H]1C(N)=O [B Z F L D F p, N-(biotinoyl-ε-aminocaproyl)-Phe-Leu-Asp-Phe-D-Pro-NH2] ({Biotin-Ahx}-FLDF[dP]-NH2)
2	CC[C@H](C)[C@H](N)C(=O)N[C@@H](CC(C)C)C(=O)N[C@@H](CC(=O)O)C(=O)N[C@@H](Cc1ccccc1)C(=O)N1CCC[C@@H]1C(N)=O [I L D F p free amine amide] (H-ILDF[dP]-NH2)

Structure (SMILES)	RELATIVE POTENCY (relative peptide inhibition of VLA-4 binding CS-1)
CC(C)COC(=O)N[C@@H](CC(=O)O)C(=O)N[C@@H](Cc1ccccc1)C(=O)N1CCCCC1	0
CC(C)C[C@H](NC(=O)Cc1ccc(O)c(O)c1)C(=O)N[C@@H](CC(=O)O)C(=O)N[C@@H](Cc1ccccc1)C(=O)N1CCCCC1	81
CC(C)C[C@@H](C(=O)N[C@@H](CC(=O)O)C(=O)N[C@@H](Cc1ccccc1)C(=O)N1CCCCC1)N1C(=O)NC(c2ccccc2)C1=O (some centres unmarked)	34
CC(C)C[C@H](NC(=O)c1ccncc1)C(=O)N[C@@H](CC(=O)O)C(=O)N[C@@H](Cc1ccc(O)cc1)C(=O)N1CCCCC1	24
CC(=O)N[C@H]1[C@H](OCCCCCC(=O)N[C@@H](Cc2ccccc2)C(=O)N[C@@H](CC(C)C)C(=O)N[C@@H](CC(=O)O)C(=O)N[C@@H](CC(C)C)C(=O)N2CCCCC2)O[C@H](CO)[C@@H](O)[C@@H]1O (Ac-[X20]FLDL-Piperidide)	41

Same assay, conditions: normalized IC50 relative to standard peptide of SEQ ID NO:3 (=1); about one-tenth or less of the standard is assigned zero

Structure (SMILES)	RELATIVE POTENCY (relative peptide inhibition of VLA-4 binding CS-1)
CC(C)C[C@H](NC(=O)Cc1ccccc1)C(=O)N[C@@H](CC(=O)O)C(=O)N[C@@H](Cc1ccccc1)C(=O)N1CCCC1CO (some centres unmarked)	184
CC(C)C[C@H](NC(=O)Cc1ccccc1)C(=O)N[C@@H](CC(=O)O)C(=O)N[C@@H](Cc1ccccc1)C(=O)N1CC(O)C(O)C1 (some centres unmarked)	194
CC(C)C[C@H](NC(=O)Cc1ccccc1)C(=O)N[C@@H](CC(=O)O)C(=O)N[C@@H](Cc1ccccc1)C(=O)N1CCC(O)CC1	603
CCCCCCCCCC(=O)OC1CCN(C(=O)[C@H](Cc2ccccc2)NC(=O)[C@H](CC(=O)O)NC(=O)[C@H](CC(C)C)NC(=O)Cc2ccccc2)CC1	1
CCCCCCCCCCCCCCCCCC(=O)OC1CCN(C(=O)[C@H](Cc2ccccc2)NC(=O)[C@H](CC(=O)O)NC(=O)[C@H](CC(C)C)NC(=O)Cc2ccccc2)CC1	1
CC(C)C[C@H](NC(=O)Cc1ccccc1)C(=O)N[C@@H](CC(=O)O)C(=O)N[C@H]1Cc2ccccc2[C@H]2CCCCN2C1=O	50
CC(C)C[C@H](NC(=O)Cc1ccccc1)C(=O)N[C@@H](CC(=O)O)C(=O)NC1Cc2ccccc2N(CCN2CCOCC2)C1=O (some centres unmarked)	20
CC(C)C[C@H](NC(=O)Cc1ccccc1)C(=O)N[C@@H](CC(=O)O)C(=O)NC1CCCCN(CC(N)=O)C1=O (some centres unmarked)	97
CC(C)C[C@H](NC(=O)Cc1ccccc1)C(=O)N[C@@H](CC(=O)O)C(=O)NC1Cc2ccccc2N(CC(C)C)C1=O (some centres unmarked)	6
CC(C)C[C@H](NC(=O)Cc1ccccc1)C(=O)N[C@@H](CC(=O)O)C(=O)NC(Cc1ccccc1)Cc1ccccc1	0
CC(C)C[C@H](NC(=O)Cc1ccccc1)C(=O)N[C@@H](CC(=O)O)C(=O)NCCN1CCOCC1	13
CC(C)C[C@H](NC(=O)Cc1ccccc1)C(=O)N[C@@H](CC(=O)O)C(=O)NC1Cc2ccccc2NC1=O (some centres unmarked)	31
CC(C)C[C@H](NC(=O)Cc1ccccc1)C(=O)N[C@@H](CC(=O)O)C(=O)NC1Cc2ccccc2N(CC(N)=O)C1=O (some centres unmarked)	45
CC(C)C[C@H](NC(=O)Cc1ccccc1)C(=O)N[C@@H](CC(=O)O)C(=O)NC1CCCCNC1=O (some centres unmarked)	27
CC(C)C[C@H](NC(=O)Cc1ccccc1)C(=O)N[C@@H](CC(=O)O)C(=O)NC1Cc2ccccc2CN1 (some centres unmarked)	3
CC(C)C[C@H](NC(=O)Cc1ccccc1)C(=O)N[C@@H](CC(=O)O)C(=O)N[C@@H]1CCCCNC1=O	17
CC(C)C[C@H](NC(=O)Cc1ccccc1)C(=O)N[C@@H](CC(=O)O)C(=O)NN(Cc1ccccc1)C(=O)C1CCCC1	1
CC(C)C[C@H](NC(=O)Cc1ccccc1)C(=O)N[C@@H](CC(=O)O)C(=O)NN(Cc1ccccc1)Cc1ccccc1	0
CC(C)C[C@H](NC(=O)Cc1ccccc1)C(=O)N[C@@H](CC(=O)O)C(=O)NC1CCN(C2CCCCC2)C1=O (some centres unmarked)	7
NC(=O)[C@H]1CCCN1C(=O)[C@H](Cc1ccccc1)NC(=O)[C@H](CC(=O)O)NC(=O)[C@H](CC1CCCCC1)NC(=O)c1ccccc1 (Bz-[Cha]DF[dP]-NH2)	17
CC(C)[C@H](NC(=O)[C@H](CC(=O)O)NC(=O)[C@H](CC1CCCCC1)NC(=O)c1ccccc1)C(=O)N1CCC[C@@H]1C(N)=O (Bz-[Cha]DV[dP]-NH2)	11
CC(C)C[C@H](NC(=O)Cc1ccccc1)C(=O)N[C@@H](CC(=O)O)C(=O)N[C@@H](Cc1ccc([N+](=O)[O-])cc1)C(=O)N1CCC[C@@H]1C(N)=O (PhAc-LD[Phe(4-NO2)][dP]-NH2)	40
CC(C)C[C@H](NC(=O)Cc1ccccc1)C(=O)N[C@@H](CC(=O)O)C(=O)N[C@H](C(=O)N1CCC[C@@H]1C(N)=O)c1ccccc1 (PhAc-LD[Phg][dP]-NH2)	61
CC(C)C[C@H](NC(=O)Cc1ccccc1)C(=O)N[C@@H](CC(=O)O)C(=O)N[C@@H](CCc1ccccc1)C(=O)N1CCC[C@@H]1C(N)=O (PhAc-LD[hPhe][dP]-NH2)	94
